Patent US11555041B2, “Bridged bicyclic inhibitors of menin-MLL and methods of use” (Kura Oncology, Inc., priority 2016, dated 2023)

biological target: T1, menin-MLL interaction (Menin MLL 4-43) (Homo sapiens, UniProt O00255); assay: Fluorescence polarization (FP) competition assay; type: binding; conditions: fluorescence polarization assay; read-out: Menin MLL 4-43 IC50
T1 sequence (O00255 1-610): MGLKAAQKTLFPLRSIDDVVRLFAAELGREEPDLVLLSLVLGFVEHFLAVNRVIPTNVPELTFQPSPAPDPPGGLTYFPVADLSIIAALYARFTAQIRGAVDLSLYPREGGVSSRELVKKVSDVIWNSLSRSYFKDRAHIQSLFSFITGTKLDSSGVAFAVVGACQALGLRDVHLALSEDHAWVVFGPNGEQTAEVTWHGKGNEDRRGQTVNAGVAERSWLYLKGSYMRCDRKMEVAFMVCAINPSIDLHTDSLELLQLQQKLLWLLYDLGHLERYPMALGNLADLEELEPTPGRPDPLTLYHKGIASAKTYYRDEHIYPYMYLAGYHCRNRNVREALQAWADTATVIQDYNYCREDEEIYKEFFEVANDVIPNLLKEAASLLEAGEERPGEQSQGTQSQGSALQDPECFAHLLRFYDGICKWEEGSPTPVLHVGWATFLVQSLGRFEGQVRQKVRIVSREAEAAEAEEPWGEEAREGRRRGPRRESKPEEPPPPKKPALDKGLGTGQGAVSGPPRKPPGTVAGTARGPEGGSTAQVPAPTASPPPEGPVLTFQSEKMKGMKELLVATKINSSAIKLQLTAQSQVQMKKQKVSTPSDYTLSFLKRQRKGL

| SMILES | IC50 [µM] |
| --- | --- |
| Cc1c(CN2CCC(Nc3ncnc4sc(CC(F)(F)F)cc34)CC2)ccc2c1cc(C#N)n2CC12CC(NC(=O)C(C)O)(C1)C2 (stereo not shown) [Compound 66] | 0.05 to 0.25 |
| Cc1nc(NC2CCN(Cc3ccc4c(cc(C#N)n4CC45CC(NC=O)(C4)C5)c3C)CC2)c2cc(CC(F)(F)F)sc2n1 [Compound 83] | < 0.05 |
| CNC12CC(Cn3c(C#N)cc4c(C)c(CN5CCC(Nc6ncnc7sc(CC(F)(F)F)cc67)CC5)ccc43)(C1)C2 [Compound 10] | 0.05 to 0.25 |
| Cc1c(CN2CCC(Nc3ncnc4sc(CC(F)(F)F)cc34)CC2)ccc2c1cc(C#N)n2CC12CC(NC(=O)CCN)(C1)C2 [Compound 39] | < 0.05 |
| CCC(=O)NC12CC(Cn3c(C#N)cc4cc(CN5CCC(Nc6ncnc7sc(CC(F)(F)F)cc67)CC5)c(O)cc43)(C1)C2 [Compound 75] | 0.05 to 0.25 |
| CC(=O)N[C@H]1C[C@@H](Cn2c(C#N)cc3c(C)c(CN4CCC(Nc5ncnc6sc(CC(F)(F)F)cc56)CC4)ccc32)C1 [Compound 31] | 0.25 to 1 |
| Cc1c(CN2CCC(Nc3ncnc4sc(CC(F)(F)F)cc34)CC2)ccc2c1cc(C#N)n2CC12CC(NC(=O)CN3CCOCC3)(C1)C2 [Compound 56] | < 0.05 |
| Cc1c(CN2CCC(Nc3ncnc4sc(CC(F)(F)F)cc34)CC2)ccc2c1cc(C#N)n2CC12CC(NC(=O)CN)(C1)C2 (single isomer, unassigned) [Compound 61] | 0.25 to 1 |
| Cc1c(CN2CCC(Nc3ncnc4sc(CC(F)(F)F)cc34)CC2)ccc2c1cc(C#N)n2CC12CC(N)(C1)C2 [Compound 13] | 0.05 to 0.25 |
| CNc1nc(NC2CCN(Cc3ccc4c(cc(C#N)n4CC45CC(NC=O)(C4)C5)c3C)CC2)c2cc(CC(F)(F)F)sc2n1 [Compound 85] | < 0.05 |
| Cc1c(CN2CCC(Nc3ncnc4sc(CC(F)(F)F)cc34)CC2)ccc2c1cc(C#N)n2CC12CC(NC(=O)C(C)C)(C1)C2 [Compound 8] | 0.05 to 0.25 |
| Cc1c(CN2CCC(Nc3ncnc4sc(CC(F)(F)F)cc34)CC2)ccc2c1cc(C#N)n2CC12CC(NC(=O)C3CCCN3)(C1)C2 (stereo not shown) [Compound 41] | < 0.05 |
| Cc1c(CN2CCC(Nc3ncnc4sc(CC(F)(F)F)cc34)CC2)ccc2c1cc(C#N)n2CC12CC(NC(=O)C3(N)CC3)(C1)C2 [Compound 60] | 0.05 to 0.25 |
| Cc1c(CN2CCC(Nc3ncnc4sc(CC(F)(F)F)cc34)CC2)ccc2c1cc(C#N)n2CC12CC(NC(=O)c3cnc[nH]3)(C1)C2 [Compound 38] | 0.05 to 0.25 |
| CNc1nc(NC2CCN(Cc3ccc4c(cc(C#N)n4CC45CC(NC(=O)Cc6cccc(N)c6)(C4)C5)c3C)CC2)c2cc(CC(F)(F)F)sc2n1 [Compound 79] | < 0.05 |
| CCC(=O)NC12CC(Cn3c(C#N)cc4c(C)c(CN5CCC(Nc6nc(N)nc7sc(CC(F)(F)F)cc67)CC5)ccc43)(C1)C2 [Compound 54] | < 0.05 |
| CC(=O)N[C@H]1C[C@H](Cn2c(C#N)cc3c(C)c(CN4CCC(Nc5ncnc6sc(CC(F)(F)F)cc56)CC4)ccc32)C1 [Compound 32] | 0.05 to 0.25 |
| Cc1c(CN2CCC(Nc3ncnc4sc(CC(F)(F)F)cc34)CC2)ccc2c1cc(C#N)n2CC12CC(NC(=O)C(F)(F)F)(C1)C2 [Compound 6] | 0.25 to 1 |
| Cc1c(CN2CCC(Nc3ncnc4sc(CC(F)(F)F)cc34)CC2)ccc2c1cc(C#N)n2CC12CC(NC=O)(C1)C2 [Compound 15] | < 0.05 |
| Cc1c(CN2CCC(Nc3ncnc4sc(CC(F)(F)F)cc34)CC2)ccc2c1cc(C#N)n2CC12CC(NC(=O)CNS(C)(=O)=O)(C1)C2 [Compound 36] | 0.05 to 0.25 |
| CC(=O)NC12CC(Cn3c(C#N)cc4c(C)c(CN5CCC(Nc6nc(C)nc7sc(CC(F)(F)F)cc67)CC5)ccc43)(C1)C2 [Compound 84] | < 0.05 |
| Cc1c(CN2CCC(Nc3ncnc4sc(CC(F)(F)F)cc34)CC2)ccc2c1cc(C#N)n2CC12CC(NC(=O)C3CCCN3C)(C1)C2 (stereo not shown) [Compound 58] | < 0.05 |

| SMILES | IC50 [µM] |
| --- | --- |
| Cc1c(CN2CCC(Nc3ncnc4sc(CC(F)(F)F)cc34)CC2)ccc2c1cc(C#N)n2CC12CC(NC(=O)C(O)CO)(C1)C2 (stereo not shown) [Compound 67] | 0.05 to 0.25 |
| Cc1c(CN2CCC(Nc3ncnc4sc(CC(F)(F)F)cc34)CC2)ccc2c1cc(C#N)n2CC12CC(NC(=O)C(N)C(C)C)(C1)C2 (stereo not shown) [Compound 62] | < 0.05 |
| CC(=O)NC12CC(Cn3c(C#N)cc4c(C)c(CN5CCC(Nc6ncnc7sc(CC(F)(F)F)cc67)CC5)ccc43)(C1)C2 [Compound 2] | 0.05 to 0.25 |
| Cc1c(CN2CCC(Nc3ncnc4sc(CC(F)(F)F)cc34)CC2)ccc2c1cc(C#N)n2CC12CC(C(=O)NCCN)(C1)C2 [Compound 37] | < 0.05 |
| Cc1c(CN2CCC(Nc3ncnc4sc(CC(F)(F)F)cc34)CC2)ccc2c1cc(C#N)n2CC12CC(NC(=O)CN)(C1)C2 [Compound 17] | < 0.05 |
| Cc1c(CN2CCC(Nc3ncnc4sc(CC(F)(F)F)cc34)CC2)ccc2c1cc(C#N)n2CC12CC(N(C)C)(C1)C2 [Compound 5] | 0.25 to 1 |
| Cc1c(CN2CCC(Nc3ncnc4sc(CC(F)(F)F)cc34)CC2)ccc2c1cc(C#N)n2CC12CC(NC(=O)C(C)(C)N)(C1)C2 [Compound 59] | < 0.05 |
| CCCCC(N)C(=O)NC12CC(Cn3c(C#N)cc4c(C)c(CN5CCC(Nc6ncnc7sc(CC(F)(F)F)cc67)CC5)ccc43)(C1)C2 (stereo not shown) [Compound 72] | 0.05 to 0.25 |
| Cc1c(CN2CCC(Nc3ncnc4sc(CC(F)(F)F)cc34)CC2)ccc2c1cc(C#N)n2CC12CC(NC(=O)CN(C)C)(C1)C2 [Compound 40] | < 0.05 |
| CC[C@@H](N)C(=O)NC12CC(Cn3c(C#N)cc4c(C)c(CN5CCC(Nc6ncnc7sc(CC(F)(F)F)cc67)CC5)ccc43)(C1)C2 [Compound 71] | < 0.05 |
| Cc1c(CN2CCC(Nc3ncnc4sc(CC(F)(F)F)cc34)CC2)ccc2c1cc(C#N)n2CC12CC(NC(=O)C(N)CC(F)(F)F)(C1)C2 (stereo not shown) [Compound 74] | 0.25 to 1 |
| Cc1c(CN2CCC(Nc3ncnc4sc(CC(F)(F)F)cc34)CC2)ccc2c1cc(C#N)n2CCC12CC(N)(C1)C2 [Compound 11] | 0.25 to 1 |
| CCC(=O)NC12CC(Cn3c(C#N)cc4c(C)c(CN5CCC(Nc6nc(NC)nc7sc(CC(F)(F)F)cc67)CC5)ccc43)(C1)C2 [Compound 86] | < 0.05 |
| C=CC(=O)NC12CC(Cn3c(C#N)cc4c(C)c(CN5CCC(Nc6ncnc7sc(CC(F)(F)F)cc67)CC5)ccc43)(C1)C2 [Compound 1] | 0.05 to 0.25 |
| CC[C@@H](NC)C(=O)NC12CC(Cn3c(C#N)cc4c(C)c(CN5CCC(Nc6ncnc7sc(CC(F)(F)F)cc67)CC5)ccc43)(C1)C2 [Compound 70] | < 0.05 |
| C=CC(=O)N[C@H]1C[C@@H](Cn2c(C#N)cc3c(C)c(CN4CCC(Nc5ncnc6sc(CC(F)(F)F)cc56)CC4)ccc32)C1 [Compound 29] | 0.05 to 0.25 |
| Cc1c(CN2CCC(Nc3ncnc4sc(CC(F)(F)F)cc34)CC2)ccc2c1cc(C#N)n2CC12CC(NC(=O)c3ccc[nH]3)(C1)C2 [Compound 34] | 0.05 to 0.25 |
| C=CC(=O)NC12CC(CCn3c(C#N)cc4c(C)c(CN5CCC(Nc6ncnc7sc(CC(F)(F)F)cc67)CC5)ccc43)(C1)C2 [Compound 14] | 0.25 to 1 |
| Cc1c(CN2CCC(Nc3ncnc4sc(CC(F)(F)F)cc34)CC2)ccc2c1cc(C#N)n2CC12CC(N(C3CC3)C3CC3)(C1)C2 [Compound 49] | > 1 |
| CNCC(=O)NC12CC(Cn3c(C#N)cc4c(C)c(CN5CCC(Nc6ncnc7sc(CC(F)(F)F)cc67)CC5)ccc43)(C1)C2 [Compound 48] | < 0.05 |
| Cc1c(CN2CCC(Nc3ncnc4sc(CC(F)(F)F)cc34)CC2)ccc2c1cc(C#N)n2CC12CC(NC(=O)Cc3cccc(N)c3)(C1)C2 [Compound 78] | 0.25 to 1 |
